Laboratory results: US8952024B2, “Herbicidal pyrimidone derivatives” (E I du Pont de Nemours and Company, priority 2009, dated 2015)

Tests used:
Format in all cases: in vivo
[1] = tested on: ducksalad (Heteranthera limosa); assay: Test B flooded paddy test; details: for Plant response rating, Flood, Ducksalad: 250 g ai/ha, flooded paddy test, visual rating on 0 to 100 scale (0 no effect, 100 complete control) after 13 to 15 days; for Plant response rating, Ducksalad: Flood (flooded paddy test), 13 to 15 days; for Ducksalad plant response rating: Flood, 31 g ai/ha, scale 0 to 100 (0 no effect, 100 complete control)
Method in brief: (§1)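 Visual scores run from 0 (no effect) to 100 (complete control), assigned by comparison with controls 13 to 15 days after treatment. Test compounds went straight into water standing 3 cm above the soil, around plants at the 2-leaf stage kept in a greenhouse.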

[2] = tested on: barnyardgrass (Echinochloa crus-galli); assay: Test B flooded paddy test; details: for Plant response rating, Flood, Barnyardgrass: 250 g ai/ha, flooded paddy test, visual rating on 0 to 100 scale (0 no effect, 100 complete control) after 13 to 15 days; for Plant response rating, Barnyardgrass: Flood (flooded paddy test), 13 to 15 days; for Barnyardgrass plant response rating: Flood, 31 g ai/ha, scale 0 to 100 (0 no effect, 100 complete control)
Method in brief: as §1

[3] = tested on: umbrella sedge (Cyperus difformis); assay: Test B flooded paddy test; details: for Plant response rating, Flood, Sedge, Umbrella: 250 g ai/ha, flooded paddy test, visual rating on 0 to 100 scale (0 no effect, 100 complete control) after 13 to 15 days; for Plant response rating, Sedge, Umbrella: Flood (flooded paddy test), 13 to 15 days; for Sedge, Umbrella plant response rating: Flood, 31 g ai/ha, scale 0 to 100 (0 no effect, 100 complete control)
Method in brief: as §1

rice (Oryza sativa) = assay: Test B flooded paddy test; details: for Plant response rating, Flood, Rice: 250 g ai/ha, flooded paddy test, visual rating on 0 to 100 scale (0 no effect, 100 complete control) after 13 to 15 days; for Plant response rating, Rice: Flood (flooded paddy test), 13 to 15 days; for Rice plant response rating: Flood, 31 g ai/ha, scale 0 to 100 (0 no effect, 100 complete control)
Method in brief: as §1

[4] = tested on: bermudagrass (Cynodon dactylon); assay: Test B pre-/postemergence plant response; details: for Bermudagrass plant response rating (0 to 100 scale): 0 is no effect
Method in brief: (§2)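 Response scores were assigned visually after 13 to 15 days in a greenhouse, comparing treated pots with controls on a 0–100 scale where 100 denotes complete control. Preemergence treatments went onto freshly seeded loam/sand soil; postemergence treatments onto plants 2 to 18 cm tall.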

[5] = tested on: morningglory (Ipomoea coccinea); assay: Test B pre-/postemergence plant response; details: for Morningglory plant response rating (0 to 100 scale): 0 is no effect
Method in brief: as §2

[6] = tested on: winter barley (Hordeum vulgare); assay: Test B postemergence plant response; details: for Barley plant response rating (0 to 100 scale): 0 is no effect
Method in brief: (§3)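 Plants grown in peat/vermiculite medium were sprayed postemergence at 2–18 cm height (1- to 4-leaf stage). After 13–15 days in the greenhouse, response was rated visually against untreated controls on a 0–100 scale (0 no effect, 100 complete control).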

[7] = tested on: windgrass (Apera spica-venti); assay: Test B postemergence plant response; details: for Windgrass plant response rating (0 to 100 scale): 0 is no effect
Method in brief: as §3

[8] = tested on: chickweed (Stellaria media); assay: Test B postemergence plant response; details: for Chickweed plant response rating (0 to 100 scale): 0 is no effect
Method in brief: as §3

[9] = tested on: canarygrass (Phalaris minor); assay: Test B postemergence plant response; details: for Canarygrass plant response rating (0 to 100 scale): 0 is no effect
Method in brief: as §3

[10] = 62 g ai/ha, scale of 0 to 100 where 0 is no effect and 100 is complete control
[11] = 125 g ai/ha, scale 0 to 100, 0 is no effect, 100 is complete control
[12] = 31 g ai/ha, postemergence, scale 0 to 100, 0 is no effect, 100 is complete control
[13] = 62 g ai/ha, postemergence, 100 is complete control, 13 to 15 days
[14] = Postemergence, 125 g ai/ha, visual rating after 13 to 15 days, scale 0 (no effect) to 100 (complete control)
[15] = Postemergence, 250 g ai/ha, scale 0 to 100 (0 no effect, 100 complete control)
[16] = Postemergence, 31 g ai/ha, 0 to 100 scale (0 no effect, 100 complete control)
[17] = Postemergence, 125 g ai/ha, scale 0 to 100 (0 no effect, 100 complete control)
[18] = Postemergence, 62 g ai/ha, scale 0 to 100 (0 no effect, 100 complete control)
[19] = Postemergence, 250 g ai/ha, scale 0 to 100 (0 no effect, 100 complete control), 13 to 15 days

## COCCOCCn1c(-c2ccccc2)ncc(C(=O)C2=C(O)CCCC2=O)c1=O [Compound 91]
[1]
  Plant response rating, Flood, Ducksalad: 100
  Ducksalad plant response rating: 65
[1]; [10]
  Plant response rating, Ducksalad: 90
[1]; [11]
  Plant response rating, Ducksalad: 90
[2]
  Plant response rating, Flood, Barnyardgrass: 65
  Barnyardgrass plant response rating: 15
[2]; [10]
  Plant response rating, Barnyardgrass: 20
[2]; [11]
  Plant response rating, Barnyardgrass: 60
[3]
  Plant response rating, Flood, Sedge, Umbrella: 100
  Sedge, Umbrella plant response rating: 75
[3]; [10]
  Plant response rating, Sedge, Umbrella: 95
[3]; [11]
  Plant response rating, Sedge, Umbrella: 100
Rice (Oryza sativa)
  Plant response rating, Flood, Rice: 15
  Rice plant response rating: 0
Rice (Oryza sativa); [10]
  Plant response rating, Rice: 15
Rice (Oryza sativa); [11]
  Plant response rating, Rice: 15
[4]; [12]
  Plant response rating, Bermudagrass: 75
[4]; [13]
  Bermudagrass plant response rating (0 to 100 scale): 95
[4]; [14]
  Plant response rating, Bermudagrass: 95
[4]; [15]
  Plant response rating, Bermudagrass: 95
[5]; [12]
  Plant response rating, Morningglory: 75
[5]; [13]
  Morningglory plant response rating (0 to 100 scale): 90
[5]; [15]
  Plant response rating, Morningglory: 98
[6]; [12]
  Plant response rating, Barley: 0
[6]; [13]
  Barley plant response rating (0 to 100 scale): 30
[6]; [14]
  Plant response rating, Barley: 30
[6]; [15]
  Plant response rating, Barley: 40
[7]; [12]
  Plant response rating, Windgrass: 10
[7]; [13]
  Windgrass plant response rating (0 to 100 scale): 40
[7]; [15]
  Plant response rating, Windgrass: 65
[8]; [12]
  Plant response rating, Chickweed: 85
[8]; [13]
  Chickweed plant response rating (0 to 100 scale): 95
[8]; [14]
  Plant response rating, Chickweed: 98
[8]; [15]
  Plant response rating, Chickweed: 100
[9]; [12]
  Plant response rating, Canarygrass: 25
[9]; [13]
  Canarygrass plant response rating (0 to 100 scale): 55
[9]; [14]
  Plant response rating, Canarygrass: 65
[9]; [15]
  Plant response rating, Canarygrass: 75

## CCn1c(-c2cccc(F)c2)ncc(C(=O)C2=C(O)C3CCC(C3)C2=O)c1=O (stereo not shown) [Compound 236]
[1]
  Plant response rating, Flood, Ducksalad: 70
  Ducksalad plant response rating: 0
[1]; [10]
  Plant response rating, Ducksalad: 0
[1]; [11]
  Plant response rating, Ducksalad: 60
[2]
  Plant response rating, Flood, Barnyardgrass: 20
  Barnyardgrass plant response rating: 0
[2]; [10]
  Plant response rating, Barnyardgrass: 0
[2]; [11]
  Plant response rating, Barnyardgrass: 0
[3]
  Plant response rating, Flood, Sedge, Umbrella: 40
  Sedge, Umbrella plant response rating: 0
[3]; [10]
  Plant response rating, Sedge, Umbrella: 0
[3]; [11]
  Plant response rating, Sedge, Umbrella: 0
Rice (Oryza sativa)
  Plant response rating, Flood, Rice: 0
  Rice plant response rating: 0
Rice (Oryza sativa); [10]
  Plant response rating, Rice: 0
Rice (Oryza sativa); [11]
  Plant response rating, Rice: 0
[4]; [16]
  Plant response rating, Bermudagrass: 95
[4]; [17]
  Plant response rating, Bermudagrass: 98
[4]; [18]
  Plant response rating, Bermudagrass: 98
[5]; [16]
  Plant response rating, Morningglory: 60
[5]; [17]
  Plant response rating, Morningglory: 95
[5]; [18]
  Plant response rating, Morningglory: 95
[6]; [16]
  Plant response rating, Barley: 0
[6]; [17]
  Plant response rating, Barley: 0
[6]; [19]
  Plant response rating, Barley: 0
[6]; [18]
  Plant response rating, Barley: 0
[7]; [16]
  Plant response rating, Windgrass: 30
[7]; [19]
  Plant response rating, Windgrass: 85
[7]; [18]
  Plant response rating, Windgrass: 50
[8]; [16]
  Plant response rating, Chickweed: 75
[8]; [17]
  Plant response rating, Chickweed: 100
[8]; [19]
  Plant response rating, Chickweed: 100
[8]; [18]
  Plant response rating, Chickweed: 100
[9]; [16]
  Plant response rating, Canarygrass: 0
[9]; [17]
  Plant response rating, Canarygrass: 0
[9]; [19]
  Plant response rating, Canarygrass: 10
[9]; [18]
  Plant response rating, Canarygrass: 0

## CCCn1c(-c2cccc(F)c2)ncc(C(=O)C2=C(O)CCCC2=O)c1=O [Compound 127]
[1]
  Plant response rating, Flood, Ducksalad: 80
  Ducksalad plant response rating: 0
[1]; [10]
  Plant response rating, Ducksalad: 30
[1]; [11]
  Plant response rating, Ducksalad: 60
[2]
  Plant response rating, Flood, Barnyardgrass: 75
  Barnyardgrass plant response rating: 0
[2]; [10]
  Plant response rating, Barnyardgrass: 40
[2]; [11]
  Plant response rating, Barnyardgrass: 65
[3]
  Plant response rating, Flood, Sedge, Umbrella: 80
  Sedge, Umbrella plant response rating: 0
[3]; [10]
  Plant response rating, Sedge, Umbrella: 20
[3]; [11]
  Plant response rating, Sedge, Umbrella: 60
Rice (Oryza sativa)
  Plant response rating, Flood, Rice: 35
  Rice plant response rating: 0
Rice (Oryza sativa); [10]
  Plant response rating, Rice: 15
Rice (Oryza sativa); [11]
  Plant response rating, Rice: 25
[4]; [13]
  Bermudagrass plant response rating (0 to 100 scale): 95
[4]; [16]
  Plant response rating, Bermudagrass: 95
[4]; [17]
  Plant response rating, Bermudagrass: 98
[4]; [19]
  Plant response rating, Bermudagrass: 98
[5]; [13]
  Morningglory plant response rating (0 to 100 scale): 80
[5]; [16]
  Plant response rating, Morningglory: 65
[5]; [17]
  Plant response rating, Morningglory: 90
[5]; [19]
  Plant response rating, Morningglory: 98
[6]; [13]
  Barley plant response rating (0 to 100 scale): 20
[6]; [16]
  Plant response rating, Barley: 0
[6]; [17]
  Plant response rating, Barley: 35
[6]; [19]
  Plant response rating, Barley: 60
[7]; [13]
  Windgrass plant response rating (0 to 100 scale): 50
[7]; [16]
  Plant response rating, Windgrass: 25
[7]; [17]
  Plant response rating, Windgrass: 55
[7]; [19]
  Plant response rating, Windgrass: 70
[8]; [13]
  Chickweed plant response rating (0 to 100 scale): 75
[8]; [16]
  Plant response rating, Chickweed: 65
[8]; [17]
  Plant response rating, Chickweed: 98
[8]; [19]
  Plant response rating, Chickweed: 98
[9]; [13]
  Canarygrass plant response rating (0 to 100 scale): 10
[9]; [16]
  Plant response rating, Canarygrass: 5
[9]; [17]
  Plant response rating, Canarygrass: 35
[9]; [19]
  Plant response rating, Canarygrass: 60
